Patent publication US6403343B2, “Method of producing a taxane-type diterpene and a method of obtaining cultured cells which produce the taxane-type dilterpene at a high rate” (Mitsui Chemicals, Inc., priority 1993, dated 2002)

Tests used:
Format in all cases: cell-based
[1] = system: cultured cells of Taxus baccata LINN, layer of 1.07 g/ml or less; test: Same culture using cells of the specific gravity layer of 1.07 g/ml or less (Ficoll), jasmonic acids added; settings: 250 μM added on 14th day, 7 more days; cells of layer of 1.07 g/ml or less
Method: (§1) The cells with accelerated growth rate obtained by the method of Example 1 were fractionated firstly by a stainless steel mesh and cell clusters having the size of 250-840 μm were obtained. A medium having a specific gravity of 1.07 (g/ml) was produced by the use of Ficoll and the above-mentioned cells were layered over it and centrifuged at 700 rpm for 6 minutes. The cells were fractionated into two layers according to the difference of the specific gravity. The cells contained in the layer of 1.07 g/ml or less were fractionated and washed with 2% sucrose solution three times or more, to wash off Ficoll. After the washing, 1 g (fresh weight) of the cells was transferred to an Erlenmeyer flask containing 20 ml of liquid Woody Plant Medium and shake culture was carried out at 25° C. for 14 days. […] After completing the culture, the procedure of Example 1 was carried out.
as §1, with “growth rates” for “growth rate”, “Example 8” for “Example 1”, “was inoculated” for “was transferred”
as §1, with “Example 15” for “Example 1”, “was inoculated” for “was transferred”

[2] = system: cultured cells of Taxus baccata LINN; test: Taxane-type diterpene yield and cell yield, shake culture of Taxus baccata cells with a jasmonic acid (or jasmone) added
[3] = system: cultured cells of Taxus baccata LINN; test: Taxane-type diterpenes in the culture medium after adding 100 μM methyl jasmonate (FIG. 1, FIG. 2); settings: 7th day after the addition
Method: The analytical results of taxane-type diterpenes existed in the culture medium of Example 15 prior to the addition of 100 μM of methyl jasmonate, on the third day after the addition, and on the 7th day after the addition, are shown in FIG. 1 and FIG. 2 On the 7th day of the culture, about half of the taxol and about 70% of the baccatin III were leaked in the medium.
The procedure of Example 20 was carried out except that the methyl ester of jasmonic acid was not added.

[4] = 0.01 μM added on 14th day, 7 more days
[5] = 0.1 μM added on 14th day, 7 more days
[6] = 1 μM added on 14th day, 7 more days
[7] = 10 μM added on 14th day, 7 more days
[8] = 25 μM added 4 times every two days from 7th day, total 100 μM
[9] = 50 μM added on 14th day, 7 more days
[10] = 100 μM added on 7th day, 14 more days
[11] = 100 μM added on 14th day, 7 more days
[12] = 100 μM added on first day, 20 more days
[13] = 250 μM added on 14th day, 7 more days
[14] = 500 μM added on 14th day, 7 more days
[15] = 1000 μM added on 14th day, 7 more days

Structure (SMILES): CC/C=C\CC1C(=O)CCC1CC(=O)OC (stereo not drawn) [methyl jasmonate]
- cell yield [1]: 10.2 g/L
- yield of baccatin III [1]: 18.7 mg/L
- yield of cephalomannine [1]: 3.2 mg/L
- yield of taxol [1]: 43.1 mg/L
- cell yield [2, 4]: 12.2 g/L
- yield of baccatin III [2, 4]: 0.3 mg/L
- yield of cephalomannine [2, 4]: 1.6 mg/L
- yield of taxol [2, 4]: 3.2 mg/L
- cell yield [2, 5]: 12.1 g/L
- yield of baccatin III [2, 5]: 0.3 mg/L
- yield of cephalomannine [2, 5]: 1.6 mg/L
- yield of taxol [2, 5]: 4.2 mg/L
- cell yield [2, 6]: 11.3 g/L
- yield of baccatin III [2, 6]: 0.4 mg/L
- yield of cephalomannine [2, 6]: 1.8 mg/L
- yield of taxol [2, 6]: 4.9 mg/L
- cell yield [2, 7]: 11.3 g/L
- yield of baccatin III [2, 7]: 0.7 mg/L
- yield of cephalomannine [2, 7]: 2.1 mg/L
- yield of taxol [2, 7]: 10.8 mg/L
- cell yield [2, 8]: 10.7 g/L
- yield of baccatin III [2, 8]: 14.9 mg/L
- yield of cephalomannine [2, 8]: 2.2 mg/L
- yield of taxol [2, 8]: 16.7 mg/L
- cell yield [2, 9]: 10.9 g/L
- yield of baccatin III [2, 9]: 3.1 mg/L
- yield of cephalomannine [2, 9]: 2.2 mg/L
- yield of taxol [2, 9]: 10.9 mg/L
- cell yield [2, 10]: 9.7 g/L
- yield of baccatin III [2, 10]: 10.6 mg/L
- yield of cephalomannine [2, 10]: 2.1 mg/L
- yield of taxol [2, 10]: 14.2 mg/L
- cell yield [2, 11]: 9.8 g/L
- yield of baccatin III [2, 11]: 9.2 mg/L
- yield of cephalomannine [2, 11]: 2.0 mg/L
- yield of taxol [2, 11]: 13.5 mg/L
- cell yield [2, 12]: 7.2 g/L
- yield of baccatin III [2, 12]: 1.2 mg/L
- yield of cephalomannine [2, 12]: 1.7 mg/L
- yield of taxol [2, 12]: 4.5 mg/L
- cell yield [2, 13]: 10.0 g/L
- yield of baccatin III [2, 13]: 12.9 mg/L
- yield of cephalomannine [2, 13]: 2.0 mg/L
- yield of taxol [2, 13]: 15.1 mg/L
- cell yield [2, 14]: 10.6 g/L
- yield of baccatin III [2, 14]: 13.0 mg/L
- yield of cephalomannine [2, 14]: 1.9 mg/L
- yield of taxol [2, 14]: 12.6 mg/L
- cell yield [2, 15]: 5.9 g/L
- yield of baccatin III [2, 15]: 1.2 mg/L
- yield of cephalomannine [2, 15]: 1.8 mg/L
- yield of taxol [2, 15]: 3.1 mg/L
- baccatin III leaked in the medium [3]: about 70%
- taxol leaked in the medium [3]: about half
